Values after ≈ are worked out from the molar mass of the structure shown.
test system: Candida albicans; test: Antifungal activity against Candida albicans isolated from HSCT recipients with acute or chronic GVHD receiving posaconazole by broth microdilution method; format: functional; details: not given

Structure (SMILES)	MIC50	MIC90
OC(Cn1cncn1)(Cn1cncn1)c1ccc(F)cc1F [FLUCONAZOLE]	0.25 µg/mL (≈ 0.816 µM)	16 µg/mL (≈ 52.2 µM)

test system: Candida albicans; test: Antifungal activity against Candida albicans isolated from neutropenic subjects with AML or MDS receiving posaconazole assessed as maximum MIC by broth microdilution method; format: functional; details: not given

Structure (SMILES)	MIC
OC(Cn1cncn1)(Cn1cncn1)c1ccc(F)cc1F [FLUCONAZOLE]	0.25 µg/mL

test system: Nakaseomyces glabratus; test: Antifungal activity against 177 days cultured Candida glabrata isolated from HSCT recipient with acute or chronic GVHD mouth receiving antifungal therapy for 172 days after 114 days of prophylaxis by broth microdilution method; format: functional; details: not given

Structure (SMILES)	MIC
OC(Cn1cncn1)(Cn1cncn1)c1ccc(F)cc1F [FLUCONAZOLE]	32 µg/mL (≈ 104 µM)

test system: Nakaseomyces glabratus; test: Antifungal activity against 25 days cultured Candida glabrata isolated from invasive fungal infected subject blood receiving antifungal therapy for 25 days after 3 days of prophylaxis by broth microdilution method; format: functional; details: not given

Structure (SMILES)	MIC
OC(Cn1cncn1)(Cn1cncn1)c1ccc(F)cc1F [FLUCONAZOLE]	8 µg/mL (≈ 26.1 µM)

test system: Candida albicans; test: Antifungal activity against Candida albicans isolated from HSCT recipient 301 with acute or chronic GVHD mouth after 114 days prophylaxis by broth microdilution method; format: functional; details: not given

Structure (SMILES)	MIC
OC(Cn1cncn1)(Cn1cncn1)c1ccc(F)cc1F [FLUCONAZOLE]	< 0.125 µg/mL

test system: Nakaseomyces glabratus; test: Antifungal activity against -2 days cultured Candida glabrata isolated from HSCT recipient with acute or chronic GVHD mouth receiving antifungal therapy for 172 days after 114 days of prophylaxis by broth microdilution method; format: functional; details: not given

Structure (SMILES)	MIC
OC(Cn1cncn1)(Cn1cncn1)c1ccc(F)cc1F [FLUCONAZOLE]	16 µg/mL (≈ 52.2 µM)

test system: Nakaseomyces glabratus; test: Antifungal activity against 60 days cultured Candida glabrata isolated from HSCT recipient with acute or chronic GVHD mouth receiving antifungal therapy for 75 days after 33 days of prophylaxis by broth microdilution method; format: functional; details: not given

Structure (SMILES)	MIC
OC(Cn1cncn1)(Cn1cncn1)c1ccc(F)cc1F [FLUCONAZOLE]	> 64 µg/mL

test system: Nakaseomyces glabratus; test: Antifungal activity against 62 days cultured Candida glabrata isolated from HSCT recipient with acute or chronic GVHD mouth receiving antifungal therapy for 143 days after 116 days of prophylaxis by broth microdilution method; format: functional; details: not given

Structure (SMILES)	MIC
OC(Cn1cncn1)(Cn1cncn1)c1ccc(F)cc1F [FLUCONAZOLE]	64 µg/mL (≈ 209 µM)

test system: Nakaseomyces glabratus; test: Antifungal activity against Candida glabrata isolated from neutropenic subject 1318 with AML or MDS stool receiving antifungal drug after 36 days prophylaxis by broth microdilution method; format: functional; details: not given

Structure (SMILES)	MIC
OC(Cn1cncn1)(Cn1cncn1)c1ccc(F)cc1F [FLUCONAZOLE]	> 64 µg/mL

test system: Nakaseomyces glabratus; test: Antifungal activity against 111 days cultured Candida glabrata isolated from HSCT recipient with acute or chronic GVHD mouth receiving antifungal therapy for 143 days after 116 days of prophylaxis by broth microdilution method; format: functional; details: not given

Structure (SMILES)	MIC
OC(Cn1cncn1)(Cn1cncn1)c1ccc(F)cc1F [FLUCONAZOLE]	64 µg/mL (≈ 209 µM)

test system: Candida albicans; test: Antifungal activity against Candida albicans isolated from HSCT recipient 462 with acute or chronic GVHD mouth after 112 days prophylaxis by broth microdilution method; format: functional; details: not given

Structure (SMILES)	MIC
OC(Cn1cncn1)(Cn1cncn1)c1ccc(F)cc1F [FLUCONAZOLE]	8 µg/mL (≈ 26.1 µM)

test system: Nakaseomyces glabratus; test: Antifungal activity against 56 days cultured Candida glabrata isolated from HSCT recipient with acute or chronic GVHD mouth receiving antifungal therapy for 172 days after 114 days of prophylaxis by broth microdilution method; format: functional; details: not given

Structure (SMILES)	MIC
OC(Cn1cncn1)(Cn1cncn1)c1ccc(F)cc1F [FLUCONAZOLE]	4 µg/mL (≈ 13.1 µM)

test system: Nakaseomyces glabratus; test: Antifungal activity against Candida glabrata isolated from HSCT recipient 002 with acute or chronic GVHD mouth after 116 days prophylaxis by broth microdilution method; format: functional; details: not given

Structure (SMILES)	MIC
OC(Cn1cncn1)(Cn1cncn1)c1ccc(F)cc1F [FLUCONAZOLE]	16 µg/mL (≈ 52.2 µM)

test system: Nakaseomyces glabratus; test: Antifungal activity against 1 day cultured Candida glabrata isolated from neutropenic subject with AML or MDS stool receiving antifungal therapy for 25 days after 3 days of prophylaxis by broth microdilution method; format: functional; details: not given

Structure (SMILES)	MIC
OC(Cn1cncn1)(Cn1cncn1)c1ccc(F)cc1F [FLUCONAZOLE]	16 µg/mL (≈ 52.2 µM)

test system: Nakaseomyces glabratus; test: Antifungal activity against 59 days cultured Candida glabrata isolated from HSCT recipient with acute or chronic GVHD mouth receiving antifungal therapy for 75 days after 33 days of prophylaxis by broth microdilution method; format: functional; details: not given

Structure (SMILES)	MIC
OC(Cn1cncn1)(Cn1cncn1)c1ccc(F)cc1F [FLUCONAZOLE]	16 µg/mL (≈ 52.2 µM)

test system: Nakaseomyces glabratus; test: Antifungal activity against 43 days cultured Candida glabrata isolated from HSCT recipient with acute or chronic GVHD mouth receiving antifungal therapy for 168 days after 113 days of prophylaxis by broth microdilution method; format: functional; details: not given

Structure (SMILES)	MIC
OC(Cn1cncn1)(Cn1cncn1)c1ccc(F)cc1F [FLUCONAZOLE]	64 µg/mL (≈ 209 µM)

test system: Candida albicans; test: Antifungal activity against Candida albicans isolated from neutropenic subjects with AML or MDS prior to initiation of posaconazole therapy assessed as maximum MIC by broth microdilution method; format: functional; details: not given

Structure (SMILES)	MIC
OC(Cn1cncn1)(Cn1cncn1)c1ccc(F)cc1F [FLUCONAZOLE]	2 µg/mL

test system: Nakaseomyces glabratus; test: Antifungal activity against 1 day cultured Candida glabrata isolated from HSCT recipient with acute or chronic GVHD mouth receiving antifungal therapy for 143 days after 116 days of prophylaxis by broth microdilution method; format: functional; details: not given

Structure (SMILES)	MIC
OC(Cn1cncn1)(Cn1cncn1)c1ccc(F)cc1F [FLUCONAZOLE]	16 µg/mL (≈ 52.2 µM)

test system: Nakaseomyces glabratus; test: Antifungal activity against Candida glabrata isolated from neutropenic subject 1102 with AML or MDS stool receiving antifungal drug after 26 days prophylaxis by broth microdilution method; format: functional; details: 624 h

Structure (SMILES)	MIC
OC(Cn1cncn1)(Cn1cncn1)c1ccc(F)cc1F [FLUCONAZOLE]	> 64 µg/mL

test system: Candida tropicalis; test: Antifungal activity against 9 days cultured Candida tropicalis isolated from neutropenic subject with AML or MDS stool receiving antifungal therapy for 45 days after 24 days of prophylaxis by broth microdilution method; format: functional; details: not given

Structure (SMILES)	MIC
OC(Cn1cncn1)(Cn1cncn1)c1ccc(F)cc1F [FLUCONAZOLE]	0.5 µg/mL (≈ 1.63 µM)

From ChEMBL document CHEMBL1687752, “Impact of antifungal prophylaxis on colonization and azole susceptibility of Candida species” (2009)
